The values below come from US10370333B2 (Sanford Burnham Prebys Medical Discovery Institute, priority 2012, dated 2019).

Test [1] concerns the target TNAP human plasma (Homo sapiens, UniProt P05186). Format: biochemical. To be noted: substrate pNPP.
For test [2], the target named is TNAP (Homo sapiens (Human), UniProt P05186). As to the kind of experiment: TNAP (PPi) inhibition assay, pyrophosphate as substrate. Format: biochemical. An outline of the steps:
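Secreted epitope-tagged human TNAP from transiently transfected COS-1 cells, dialyzed to remove phosphate. Inhibitors tested kinetically at pH 7.4 with PPi as substrate; released phosphate quantified colorimetrically with Biomol Green reagent.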

As to `COc1ccc(OC)c(S(=O)(=O)Nc2cnc3ccc(C(=O)NC4CCCCC4)cc3c2)c1` [Example IX-16, 3-(2,5-Dimethoxy-benzenesulfonylamino)-quinoline-6-carboxylic Acid Cyclohexylamide], the IC50 is less than 5000 nM in test [1] and less than 100 nM in test [2].

In test [2], `O=C(NC1CCCCC1)c1cncc(NS(=O)(=O)c2cc(Cl)ccc2OC(F)(F)F)c1` [Example XII-8, 5-(5-Chloro-2-(trifluoromethoxy)phenylsulfonamido)-N-cyclohexylnicotinamide] gave an IC50 of 100 to 1000 nM.

Molecule `COC(=O)c1cncc(NS(=O)(=O)c2cc(Br)ccc2OC(F)(F)F)c1` [Example XII-9, Methyl 5-(5-bromo-2-(trifluoromethoxy)phenylsulfonamido)nicotinate] displayed an IC50 in test [2] of 100 to 1000 nM.

As for `O=C(O)c1cncc(NS(=O)(=O)c2cc(Br)ccc2OC(F)(F)F)c1` [Example XII-10, 5-(5-Bromo-2-(trifluoromethoxy)phenylsulfonamido)nicotinic acid], in test [2], the IC50 was less than 100 nM.

In test [2], `O=C(OC1CCCCC1)c1cncc(NS(=O)(=O)c2cc(Br)ccc2OC(F)(F)F)c1` [Example XII-11, Cyclohexyl 5-(5-bromo-2-(trifluoromethoxy)phenylsulfonamido)nicotinate] gave an IC50 of less than 100 nM.

`O=C(Oc1ccccc1)c1cncc(NS(=O)(=O)c2cc(Br)ccc2OC(F)(F)F)c1` [Example XII-12, Phenyl 5-(5-bromo-2-(trifluoromethoxy)phenylsulfonamido)nicotinate] yielded an IC50 in test [2] of less than 100 nM.

In the case of `NC(=O)c1cncc(NS(=O)(=O)c2cc(Br)ccc2OC(F)(F)F)c1` [Example XII-13, 5-(5-Bromo-2-(trifluoromethoxy)phenylsulfonamido)nicotinamide], the IC50 in test [2] was less than 100 nM.

Molecule `CNC(=O)c1cncc(NS(=O)(=O)c2cc(Br)ccc2OC(F)(F)F)c1` [Example XII-14, 5-(5-Bromo-2-(trifluoromethoxy)phenylsulfonamido)-N-methylnicotinamide] showed an IC50 in test [2] of 100 to 1000 nM.

The molecule `COC(=O)c1cncc(NS(=O)(=O)c2cc(OC(F)(F)F)ccc2OC)c1` [Example XII-15, Methyl 5-(2-methoxy-5-(trifluoromethoxy)phenylsulfonamido)nicotinate] displayed an IC50 in test [2] of 100 to 1000 nM.

Molecule `CCCOC(=O)c1cncc(NS(=O)(=O)c2cc(OC(F)(F)F)ccc2OC)c1` [Example XII-16, Propyl 5-(2-methoxy-5-(trifluoromethoxy)phenylsulfonamido)nicotinate] returned an IC50 in test [2] of less than 100 nM.

Take `COc1ccc(OC(F)(F)F)cc1S(=O)(=O)Nc1cncc(C(=O)OC2CCCCC2)c1` [Example XII-17, Cyclohexyl 5-(2-methoxy-5-(trifluoromethoxy)phenylsulfonamido)nicotinate]: the IC50 in test [2] is less than 100 nM.

Consider `COc1ccc(OC(F)(F)F)cc1S(=O)(=O)Nc1cncc(C(=O)Oc2ccccc2)c1` [Example XII-18, Phenyl 5-(2-methoxy-5-(trifluoromethoxy)phenylsulfonamido)nicotinate], for which the IC50 in test [2] is less than 100 nM.

With `CNC(=O)c1cncc(NS(=O)(=O)c2cc(OC(F)(F)F)ccc2OC)c1` [Example XII-20, 5-(2-Methoxy-5-(trifluoromethoxy)phenylsulfonamido)-N-methylnicotinamide], the IC50 in test [2] was 100 to 1000 nM.

In turn, `CCCNC(=O)c1cncc(NS(=O)(=O)c2cc(OC(F)(F)F)ccc2OC)c1` [Example XII-21, 5-(2-Methoxy-5-(trifluoromethoxy)phenylsulfonamido)-N-propylnicotinamide] yielded an IC50 in test [2] greater than 1000 nM.

With `COc1ccc(OC(F)(F)F)cc1S(=O)(=O)Nc1cncc(C(=O)NC2CCCCC2)c1` [Example XII-22, 5-(2-Methoxy-5-(trifluoromethoxy)phenylsulfonamido)-N-cyclohexylnicotinamide], in test [2], the IC50 was in the range of 100 to 1000 nM.

In the case of `COC(=O)c1cncc(N(C)S(=O)(=O)c2cc(OC)ccc2OC(F)(F)F)c1` [Example XII-23, 5-[(5-Methoxy-2-trifluoromethoxy-benzenesulfonyl)-methyl-amino]-nicotinic Acid Methyl Ester], the IC50 in test [2] was greater than 1000 nM.
